Measured values: BindingDB's records for doi:10.1002/cbic.200300842 (University of Georgia, 2004)
Values joined by “and” are separate entries in the source; they are usually repeats but may differ in a detail not shown here. Equal values may be shown once.

target: T1, Alpha-mannosidase 2 (Homo sapiens, UniProt Q16706); conditions: pH 5.6; 37 °C
T1 sequence (Q16706 whole entry): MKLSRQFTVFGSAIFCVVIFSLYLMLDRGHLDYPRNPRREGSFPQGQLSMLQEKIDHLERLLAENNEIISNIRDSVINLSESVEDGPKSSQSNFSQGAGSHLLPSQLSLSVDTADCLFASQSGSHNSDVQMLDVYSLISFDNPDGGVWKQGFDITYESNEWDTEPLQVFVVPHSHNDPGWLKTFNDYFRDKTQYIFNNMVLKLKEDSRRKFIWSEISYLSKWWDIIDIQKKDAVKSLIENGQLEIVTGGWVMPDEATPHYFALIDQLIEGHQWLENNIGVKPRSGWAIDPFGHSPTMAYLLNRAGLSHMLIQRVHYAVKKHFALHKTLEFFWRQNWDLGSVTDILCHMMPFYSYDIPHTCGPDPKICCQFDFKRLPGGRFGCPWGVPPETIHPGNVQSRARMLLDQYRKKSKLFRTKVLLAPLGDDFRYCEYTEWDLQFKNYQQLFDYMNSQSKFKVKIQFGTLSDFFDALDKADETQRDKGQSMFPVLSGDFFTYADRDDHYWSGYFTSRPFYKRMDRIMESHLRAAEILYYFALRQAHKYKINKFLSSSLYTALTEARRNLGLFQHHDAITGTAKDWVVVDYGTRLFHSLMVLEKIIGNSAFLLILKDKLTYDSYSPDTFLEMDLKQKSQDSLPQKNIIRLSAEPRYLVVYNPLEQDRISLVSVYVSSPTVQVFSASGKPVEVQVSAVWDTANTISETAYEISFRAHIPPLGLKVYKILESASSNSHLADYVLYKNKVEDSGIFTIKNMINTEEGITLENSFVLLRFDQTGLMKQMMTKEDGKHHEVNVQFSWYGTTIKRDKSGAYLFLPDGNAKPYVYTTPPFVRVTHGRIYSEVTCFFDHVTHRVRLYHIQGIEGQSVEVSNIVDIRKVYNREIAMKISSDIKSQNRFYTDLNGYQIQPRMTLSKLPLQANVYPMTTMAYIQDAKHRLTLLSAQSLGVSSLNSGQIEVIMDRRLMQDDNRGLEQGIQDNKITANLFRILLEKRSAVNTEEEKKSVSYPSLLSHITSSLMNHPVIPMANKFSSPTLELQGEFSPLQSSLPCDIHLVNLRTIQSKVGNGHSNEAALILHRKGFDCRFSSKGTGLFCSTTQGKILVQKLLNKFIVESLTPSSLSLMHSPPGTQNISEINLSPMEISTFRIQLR

| SMILES | Ki |
| --- | --- |
| COc1ccc(CN[C@H]2[C@@H](O)[C@@H](O)[C@@H](O)[C@@H]2SC)cc1 [Benzylation of mannostatin A, 1f] | 0.52 µM and 0.1 µM |
| CS[C@@H]1[C@@H](N)[C@@H](O)[C@@H](O)[C@H]1O [Mannostatin A, 1] | 0.21 µM and 0.09 µM |
| N[C@H]1[C@@H](O)[C@@H](O)[C@@H](O)[C@H]1O [Mannostatin analogue, 4b] | 50 µM and 6.6 µM |

Continued, values first:

| Ki | SMILES |
| --- | --- |
| 0.53 µM and 0.17 µM | CS[C@H]1[C@H](O)[C@H](O)[C@H](O)[C@@H]1NCc1ccc(F)cc1 [Benzylation of mannostatin A, 1c] |
| 0.91 µM and 0.1 µM | CS[C@H]1[C@H](O)[C@H](O)[C@H](O)[C@@H]1NCc1ccc(Cl)cc1 [Benzylation of mannostatin A, 1d] |
